# Assay results from patent US6441021B1, “Sulfonated amino acid derivatives and metalloproteinase inhibitors containing the same” (Shionogi & Co., Ltd., priority 1996, dated 2002).
# Molecular target: T1, MMP-9 (92 kDa, gelatinase B; type IV collagenase) (Homo sapiens, UniProt P14780)
# T1 construct: endogenous in cells; enzyme purified from the conditioned medium
# Test: Assay of type IV collagenase inhibitors: activated MMP-9 with type IV collagenase activity kit substrate, fluorescent intensity
# Type: biochemical
# Conditions: not given
# Experimental: (1) Isolation and Purification of MMP-9 (92 kDa, Gelatinase B)
# Type IV collagenase (MMP-9) was purified according to the methods descrived in the following literature.
# Subsequently, activated MMP-9 was obtained by treating the pro-MMP-9 with trypsin.
# (2) Assay Methods of Type IV Collagenase Inhibitors
# Collagenase assay was performed using the activated MMP-9 described above and the substrate supplied in the type IV collagenase activity kit (YAGAI, inc.), according to the manufacturer's protocol. The following 4 assays are performed per compound (inhibitor).
# (A) substrate (type IV collagenase), enzyme (MMP-9), inhibitor
# (B) substrate (type IV collagenase), inhibitor
# (C) substrate (type IV collagenase), enzyme (MMP-9)
# (D) substrate (type IV collagenase)
# According to the manufacturer's protocol, fluorescent intensity was measured and percent inhibition was determined by the following equation.
# Inhibition (%)={1−(A−B)/(C−D)}×100
# T1 sequence (P14780 107-707 limits assumed): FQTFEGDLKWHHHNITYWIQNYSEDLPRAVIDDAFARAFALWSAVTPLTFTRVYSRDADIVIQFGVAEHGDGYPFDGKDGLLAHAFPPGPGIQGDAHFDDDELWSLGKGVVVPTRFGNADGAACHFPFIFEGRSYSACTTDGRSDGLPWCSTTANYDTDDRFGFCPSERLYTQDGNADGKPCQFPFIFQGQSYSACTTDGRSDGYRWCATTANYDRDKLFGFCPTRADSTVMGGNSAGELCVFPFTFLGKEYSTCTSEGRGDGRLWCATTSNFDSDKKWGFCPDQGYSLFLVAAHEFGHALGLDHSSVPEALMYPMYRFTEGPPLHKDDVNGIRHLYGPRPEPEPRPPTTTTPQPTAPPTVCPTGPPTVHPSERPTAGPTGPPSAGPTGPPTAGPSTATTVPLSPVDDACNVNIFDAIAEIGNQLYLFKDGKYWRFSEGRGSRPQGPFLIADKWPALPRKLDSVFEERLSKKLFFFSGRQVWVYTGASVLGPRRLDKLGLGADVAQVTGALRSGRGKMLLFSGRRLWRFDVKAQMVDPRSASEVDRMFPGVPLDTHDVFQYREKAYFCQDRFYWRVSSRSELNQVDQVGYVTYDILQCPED
row,IC50,Structure (SMILES)
1,908 nM,O=C(O)[C@@H](Cc1ccccc1)N(Cc1ccccc1)S(=O)(=O)c1ccc(-c2nnn(-c3ccccc3)n2)cc1 [Example 258]
2,197 nM,O=C(O)[C@@H](Cc1ccccc1)NS(=O)(=O)c1ccc(-c2nnn(-c3ccc(F)cc3)n2)cc1 [Example 231]
3,52.9 nM,CC(C)[C@@H](NS(=O)(=O)c1ccc(-c2nnn(-c3ccc(F)cc3)n2)cc1)C(=O)O [Example 243]
4,252 nM,CC(C)[C@@H](NS(=O)(=O)c1ccc(NC(=O)c2ccc([N+](=O)[O-])cc2)cc1)C(=O)O [Example 201]
5,57.3 nM,Cc1ccc(C(=O)Nc2ccc(S(=O)(=O)N[C@@H](C(=O)O)C(C)C)cc2)cc1 [Example 196]
6,3.5 nM,CSc1ccc(-n2nnc(-c3ccc(S(=O)(=O)N[C@H](Cc4c[nH]c5ccccc45)C(=O)O)cc3)n2)cc1 [Example 247]
7,2060 nM,CC(C)[C@@H](NS(=O)(=O)c1ccc(NC(=O)c2ccccc2)cc1)C(=O)O [Example 199]
8,53.9 nM,CN(C)c1ccc(C(=O)Nc2ccc(S(=O)(=O)N[C@H](Cc3c[nH]c4ccccc34)C(=O)O)cc2)cc1 [Example 181]
9,144 nM,O=C(O)[C@@H](Cc1ccccc1)NS(=O)(=O)c1ccc(-c2nnn(-c3ccc(Cl)cc3)n2)cc1 [Example 232]
10,744 nM,O=C(O)C(Cc1cccc2ccccc12)NS(=O)(=O)c1ccc(-c2nnn(-c3ccccc3)n2)cc1 (centres unmarked) [Example 218]
11,12.2 nM,CC(C)[C@@H](NS(=O)(=O)c1ccc(-c2nnn(-c3ccc(Br)cc3)n2)cc1)C(=O)O [Example 225]
12,23.9 nM,Cc1ccc(-n2nnc(-c3ccc(S(=O)(=O)N[C@@H](C(=O)O)C(C)C)cc3)n2)cc1 [Example 242]
13,153 nM,COc1ccc(-n2nnc(-c3ccc(S(=O)(=O)N[C@H](Cc4ccccc4)C(=O)O)cc3)n2)cc1 [Example 234]
14,45 nM,O=C(Nc1ccc(S(=O)(=O)N[C@H](Cc2c[nH]c3ccccc23)C(=O)O)cc1)c1ccc([N+](=O)[O-])cc1 [Example 180]
15,281 nM,O=C(O)[C@@H](Cc1ccccc1)NS(=O)(=O)c1ccc(-c2nnn(-c3ccc([N+](=O)[O-])cc3)n2)cc1 [Example 230]
16,5.9 nM,Cc1ccc(C(=O)Nc2ccc(S(=O)(=O)N[C@H](Cc3c[nH]c4ccccc34)C(=O)O)cc2)cc1 [Example 182]
17,173 nM,COc1ccc(C(=O)Nc2ccc(S(=O)(=O)N[C@@H](C(=O)O)C(C)(C)C)cc2)cc1 [Example 203]
18,13.1 nM,Cc1ccc(-n2nnc(-c3ccc(S(=O)(=O)N[C@H](Cc4c[nH]c5ccccc45)C(=O)O)cc3)n2)cc1 [Example 241]
19,1100 nM,CC(C)[C@@H](NS(=O)(=O)c1ccc(NC(=O)c2ccc(-c3ccccc3)cc2)cc1)C(=O)O [Example 195]
20,106 nM,O=C(O)[C@@H](Cc1ccccc1)NS(=O)(=O)c1ccc(-c2nnn(-c3ccc(Br)cc3)n2)cc1 [Example 228]
21,78 nM,CCC(C)[C@@H](NS(=O)(=O)c1ccc(-c2nnn(-c3ccc(OC)cc3)n2)cc1)C(=O)O (some centres unmarked) [Example 222]
22,42.2 nM,O=C(Nc1ccc(S(=O)(=O)N[C@H](Cc2c[nH]c3ccccc23)C(=O)O)cc1)c1ccc(F)cc1 [Example 185]
23,240 nM,CC(C)[C@H](C(=O)O)N(C)S(=O)(=O)c1ccc(Oc2ccccc2)cc1 [Example 252]
24,3.25 nM,CSc1ccc(C(=O)Nc2ccc(S(=O)(=O)N[C@H](Cc3c[nH]c4ccccc34)C(=O)O)cc2)cc1 [Example 184]
25,10.8 nM,CSc1ccc(-n2nnc(-c3ccc(S(=O)(=O)N[C@H](Cc4ccccc4)C(=O)O)cc3)n2)cc1 [Example 246]

# Same assay, conditions: activated MMP-9, type IV collagenase activity kit substrate, fluorescent intensity; concentration at which percent inhibition reaches 50%
row,IC50,Structure (SMILES)
1,3500 nM,O=C(NO)[C@H](Cc1c[nH]c2ccccc12)NS(=O)(=O)c1ccc(Oc2ccccc2)cc1 [Example 1b-1-62]
2,1120 nM,CC(C)[C@@H](NS(=O)(=O)c1ccc(-c2ccc(C(F)(F)F)cc2)cc1)C(=O)O [Example 1a-1-46]
3,247 nM,O=C(O)[C@@H](Cc1c[nH]c2ccccc12)NS(=O)(=O)c1ccc(Oc2ccccc2)cc1 [Example 1a-1-61]
4,240 nM,O=C(O)[C@@H](Cc1ccccc1)NS(=O)(=O)c1ccc(-c2ccccc2)cc1 [Example 1a-1-1]
5,291 nM,Cc1ccc2[nH]cc(CC(NS(=O)(=O)c3ccc(Oc4ccccc4)cc3)C(=O)O)c2c1 (racemic) [Example 1a-1-65]
6,1310 nM,O=C(O)[C@@H](Cc1ccccc1)NS(=O)(=O)c1ccc(Oc2ccccc2)cc1 [Example 1a-1-60]
7,40 nM,O=C(NO)C(Cc1cscn1)NS(=O)(=O)c1ccc(-c2ccccc2)cc1 (racemic) [Example 1b-1-2]
8,40 nM,CC(C)[C@@H](NS(=O)(=O)c1ccc(-c2ccc(-c3ccccc3)cc2)cc1)C(=O)O [Example 1a-1-45]
9,553 nM,COc1ccc(-c2ccc(S(=O)(=O)N[C@H](Cc3ccccc3)C(=O)O)cc2)cc1 [Example 1a-1-50]
10,20.3 nM,Cc1ccc2[nH]cc(CC(NS(=O)(=O)c3ccc(-c4ccccc4)cc3)C(=O)NO)c2c1 (racemic) [Example 1b-1-17]
11,1.2 nM,O=C(NO)[C@@H](Cc1ccccc1)NS(=O)(=O)c1ccc(Oc2ccccc2)cc1 [Example 1b-1-60]
12,500 nM,O=C(O)C(Cc1c[nH]c2ccc(F)cc12)NS(=O)(=O)c1ccc(-c2ccccc2)cc1 (racemic) [Example 1a-1-18]
13,1910 nM,CC(C)[C@@H](NS(=O)(=O)c1ccc(-c2ccc(C(C)(C)C)cc2)cc1)C(=O)O [Example 1a-1-44]
14,39.8 nM,CSc1ccc(-c2ccc(S(=O)(=O)N[C@@H](C(=O)O)C(C)C)cc2)cc1 [Example 1a-1-55]
15,200 nM,O=C(NO)[C@@H](Cc1ccccc1)NS(=O)(=O)c1ccc(O)cc1 [Example 1b-1-24]
16,625 nM,CC(C)[C@@H](NS(=O)(=O)c1ccc(-c2ccccc2)cc1)C(=O)O [Example 1a-1-43]
17,312 nM,O=C(O)[C@@H](Cc1c[nH]c2ccccc12)NS(=O)(=O)c1ccc(-c2ccc(F)cc2)cc1 [Example 1a-1-41]
18,1700 nM,CN(C)c1cccc2c(S(=O)(=O)N[C@H](Cc3ccccc3)C(=O)NO)cccc12 [Example 1b-1-11]
19,75 nM,CSc1ccc(-c2ccc(S(=O)(=O)N[C@H](Cc3ccccc3)C(=O)O)cc2)cc1 [Example 1a-1-54]
20,2100 nM,O=C(NO)[C@@H](Cc1ccccc1)NS(=O)(=O)c1ccc(C(F)(F)F)cc1 [Example 1b-1-10]
21,30 nM,O=C(NO)[C@@H](Cc1ccccc1)NS(=O)(=O)c1ccc(-c2ccccc2)cc1 [Example 1b-1-1]
22,3000 nM,O=C(NO)[C@@H](Cc1ccccc1)NS(=O)(=O)c1ccc([N+](=O)[O-])cc1 [Example 1b-1-27]
23,5 nM,O=C(NO)[C@@H](Cc1c[nH]c2ccccc12)NS(=O)(=O)c1ccc(-c2ccccc2)cc1 [Example 1b-1-33]
24,1150 nM,CC(C)[C@@H](NS(=O)(=O)c1ccc(-c2ccc(F)cc2)cc1)C(=O)O [Example 1a-1-48]

# Same assay, conditions: inhibition of type IV collagenase (MMP-9), concentration at which percent inhibition reaches 50%
row,IC50,Structure (SMILES)
1,2.7 nM,O=C(Nc1ccc(S(=O)(=O)N[C@H](Cc2c[nH]c3ccccc23)C(=O)O)cc1)c1ccc(Br)cc1 [Example 183]
2,69.9 nM,O=C(O)[C@@H](Cc1c[nH]c2ccccc12)NS(=O)(=O)c1ccc(C#Cc2ccc([N+](=O)[O-])cc2)cc1 [Example 1a-2-7]
3,1280 nM,CC(C)[C@@H](NS(=O)(=O)c1ccc(-c2ccc(F)cc2)s1)C(=O)O [Example 1a-3-8]
4,86.4 nM,Cc1ccc(-n2nnc(-c3ccc(S(=O)(=O)N[C@H](Cc4ccccc4)C(=O)O)cc3)n2)cc1 [Example 233]
5,8.3 nM,COc1ccc(-c2ccc(S(=O)(=O)N[C@H](Cc3ccccc3)C(=O)O)s2)cc1 [1a-3-10]
6,222 nM,O=C(O)[C@@H](Cc1ccccc1)NS(=O)(=O)c1ccc(C#Cc2ccc(F)cc2)s1 [Example 1a-2-38]
7,237 nM,O=C(O)[C@@H](Cc1c[nH]c2ccccc12)NS(=O)(=O)c1ccc(C#Cc2ccccc2)cc1 [Example 1a-2-2]
8,3740 nM,CCC(C)[C@@H](NS(=O)(=O)c1ccc(C#Cc2ccc(OC)cc2)cc1)C(=O)O (some centres unmarked) [Example 1a-2-21]
9,1770 nM,O=C(O)[C@@H](Cc1c[nH]c2ccccc12)NS(=O)(=O)c1ccc(-c2nc3ccccc3s2)cc1 [Example 1a-1-83]
10,203 nM,CC(C)[C@@H](NS(=O)(=O)c1ccc(C#Cc2ccc(F)cc2)cc1)C(=O)O [Example 1a-2-19]
11,10.8 nM,Cc1ccc(-c2ccc(S(=O)(=O)N[C@H](Cc3c[nH]c4ccccc34)C(=O)O)s2)cc1 [Example 1a-3-3]
12,92.2 nM,Cc1ccc(C#Cc2ccc(S(=O)(=O)N[C@H](Cc3ccccc3)C(=O)O)s2)cc1 [Example 1a-2-37]
13,13 nM,O=C(NO)[C@@H](Cc1ccccc1)NS(=O)(=O)c1ccc(N=Nc2ccccc2)cc1 [Example 1b-1-85]
14,4440 nM,O=C(Nc1ccc(S(=O)(=O)N[C@H](Cc2ccccc2)C(=O)O)cc1)c1ccncc1 [Example 205]
15,47.5 nM,C#Cc1ccc(C#Cc2ccc(S(=O)(=O)N[C@H](Cc3c[nH]c4ccccc34)C(=O)O)cc2)cc1 [Example 1a-2-11]
16,57.7 nM,Nc1ccc(C#Cc2ccc(S(=O)(=O)N[C@H](Cc3c[nH]c4ccccc34)C(=O)O)cc2)cc1 [Example 1a-2-9]
17,5.9 nM,CSc1ccc(-n2nnc(-c3ccc(S(=O)(=O)N[C@@H](C(=O)O)C(C)C)cc3)n2)cc1 [Example 245]
18,14 nM,CSc1ccc(-c2ccc(S(=O)(=O)N[C@@H](C(=O)O)C(C)C)s2)cc1 [Example 1a-3-9]
19,3410 nM,COc1ccc(C#Cc2ccc(S(=O)(=O)N[C@@H](C(=O)O)C(C)(C)C)cc2)cc1 [Example 1a-2-20]
